The numbers were not newly measured in patent publication US20070260203A1, “Vasoactive agent intraocular implant” (ALLERGAN, INC., priority 2006, published 2007), which cites them from elsewhere.

For one data set, the target named is T1, endothelin-A receptor (Homo sapiens, UniProt P25101).
T1 sequence (P25101 21-427): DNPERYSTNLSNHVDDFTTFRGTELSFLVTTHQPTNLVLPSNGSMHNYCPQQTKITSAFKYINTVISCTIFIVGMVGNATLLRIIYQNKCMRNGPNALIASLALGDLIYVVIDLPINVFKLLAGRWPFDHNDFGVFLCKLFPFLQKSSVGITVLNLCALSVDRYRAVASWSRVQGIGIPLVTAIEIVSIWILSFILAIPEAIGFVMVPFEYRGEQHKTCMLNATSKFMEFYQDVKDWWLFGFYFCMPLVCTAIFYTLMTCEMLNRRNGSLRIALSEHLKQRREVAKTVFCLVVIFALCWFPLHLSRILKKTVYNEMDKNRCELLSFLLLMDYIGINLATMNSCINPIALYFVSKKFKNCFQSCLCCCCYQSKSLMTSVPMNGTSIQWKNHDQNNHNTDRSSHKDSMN
The settings on record: competitive antagonist of both ETA and ETB.

Where two headings read alike, the source gives them in different places.

With `COc1ccccc1Oc1c(NS(=O)(=O)c2ccc(C(C)(C)C)cc2)nc(-c2ncccn2)nc1OCCO` [Bosentan], the effective concentration (endothelin receptor antagonist, Giersbergen et al. 2005) was 0.3 to 3 µg/mL. Besides, the “affinity for the ETA receptor relative to ETB receptor” value on endothelin-A receptor was “slightly higher affinity”.

Take `CC[C@@H]1C(=O)OC[C@@H]1Cc1cncn1C` [pilocarpine]: the effective concentration (Yoshitomi et al. 2000, rabbit ciliary artery) is 1 to 10 µM.
